Measured values published in ChEMBL document CHEMBL3885881, “DrugMatrix”.

Organism: Rattus norvegicus
Experiment: DrugMatrix - Regimen: Daily Repeat
Assay type: toxicity, organism-based, Sprague-Dawley
Design: regimen Daily Repeat, gender Male, age 6-8 weeks
Conditions: in vivo, po, route oral GAVAGE, vehicle .5 % CMC; for BASOPHIL / EOSINOPHIL / ERYTHROCYTE COUNT / HEMATOCRIT / HEMOGLOBIN / LEUKOCYTE COUNT / LYMPHOCYTE / MEAN CORPUSCULAR HEMOGLOBIN / MEAN CORPUSCULAR HEMOGLOBIN CONCENTRATION / MEAN CORPUSCULAR VOLUME / MONOCYTE / NEUTROPHIL / PLATELET COUNT: tissue Blood; for ALANINE AMINOTRANSFERASE / ALBUMIN / ALKALINE PHOSPHATASE / ASPARTATE AMINOTRANSFERASE / BLOOD UREA NITROGEN / CHLORIDE / CHOLESTEROL / CREATINE PHOSPHOKINASE / CREATININE / GLUCOSE / PHOSPHORUS / POTASSIUM / SODIUM / TOTAL PROTEIN: tissue Plasma
[1] = 1 mg/kg, 120 h, dose level Low, time 5 day
[2] = 14 mg/kg, 72 h, dose level High, time 3 day
[3] = 14 mg/kg, 120 h, dose level High, time 5 day

CN1C(C(=O)Nc2ccccn2)=C(O)c2ccccc2S1(=O)=O [PIROXICAM]
BASOPHIL [1]: 0% | EOSINOPHIL [1]: 0.33% | ERYTHROCYTE COUNT [1]: 6.32 x10E6/uL | HEMATOCRIT [1]: 40.2% | HEMOGLOBIN [1]: 15.2 G/DL | LEUKOCYTE COUNT [1]: 12.73 x10E3/uL | LYMPHOCYTE [1]: 86.33% | MEAN CORPUSCULAR HEMOGLOBIN [1]: 24.07 pg | MEAN CORPUSCULAR HEMOGLOBIN CONCENTRATION [1]: 37.83 G/DL | MEAN CORPUSCULAR VOLUME [1]: 63.7 fL | MONOCYTE [1]: 2.33% | NEUTROPHIL [1]: 11% | PLATELET COUNT [1]: 1319.67 x10E3/uL | ALANINE AMINOTRANSFERASE [1]: 36.67 u/L | ALBUMIN [1]: 3.43 G/DL | ALKALINE PHOSPHATASE [1]: 437.33 u/L | ASPARTATE AMINOTRANSFERASE [1]: 64 u/L | BLOOD UREA NITROGEN [1]: 13.67 mg/dL | CHLORIDE [1]: 103 MEQ/L | CHOLESTEROL [1]: 65 mg/dL | CREATINE PHOSPHOKINASE [1]: 156.67 u/L | CREATININE [1]: 0.53 mg/dL | GLUCOSE [1]: 162.67 mg/dL | PHOSPHORUS [1]: 11.97 mg/dL | POTASSIUM [1]: 7.07 MEQ/L | SODIUM [1]: 148.33 MEQ/L | TOTAL PROTEIN [1]: 5.63 G/DL | BASOPHIL [2]: 0% | EOSINOPHIL [2]: 0.67% | ERYTHROCYTE COUNT [2]: 6.72 x10E6/uL | HEMATOCRIT [2]: 42.6% | HEMOGLOBIN [2]: 15.63 G/DL | LEUKOCYTE COUNT [2]: 11.5 x10E3/uL | LYMPHOCYTE [2]: 77.67% | MEAN CORPUSCULAR HEMOGLOBIN [2]: 23.3 pg | MEAN CORPUSCULAR HEMOGLOBIN CONCENTRATION [2]: 36.73 G/DL | MEAN CORPUSCULAR VOLUME [2]: 63.4 fL | MONOCYTE [2]: 1.67% | NEUTROPHIL [2]: 20% | PLATELET COUNT [2]: 1318.33 x10E3/uL | ALANINE AMINOTRANSFERASE [2]: 31.33 u/L | ALBUMIN [2]: 3.67 G/DL | ALKALINE PHOSPHATASE [2]: 301.33 u/L | ASPARTATE AMINOTRANSFERASE [2]: 56.33 u/L | BLOOD UREA NITROGEN [2]: 18.33 mg/dL | CHLORIDE [2]: 104.67 MEQ/L | CHOLESTEROL [2]: 84.67 mg/dL | CREATINE PHOSPHOKINASE [2]: 181.33 u/L | CREATININE [2]: 0.47 mg/dL | GLUCOSE [2]: 193.67 mg/dL | PHOSPHORUS [2]: 14.03 mg/dL | POTASSIUM [2]: 6.9 MEQ/L | SODIUM [2]: 150.67 MEQ/L | TOTAL PROTEIN [2]: 6.03 G/DL | BASOPHIL [3]: 0% | EOSINOPHIL [3]: 0% | ERYTHROCYTE COUNT [3]: 6.6 x10E6/uL | HEMATOCRIT [3]: 41.4% | HEMOGLOBIN [3]: 15.03 G/DL | LEUKOCYTE COUNT [3]: 16.7 x10E3/uL | LYMPHOCYTE [3]: 84.33% | MEAN CORPUSCULAR HEMOGLOBIN [3]: 22.83 pg | MEAN CORPUSCULAR HEMOGLOBIN CONCENTRATION [3]: 36.4 G/DL | MEAN CORPUSCULAR VOLUME [3]: 62.8 fL | MONOCYTE [3]: 0.67% | NEUTROPHIL [3]: 15% | PLATELET COUNT [3]: 1151 x10E3/uL | ALANINE AMINOTRANSFERASE [3]: 37.33 u/L | ALBUMIN [3]: 3.4 G/DL | ALKALINE PHOSPHATASE [3]: 386 u/L | ASPARTATE AMINOTRANSFERASE [3]: 55.33 u/L | BLOOD UREA NITROGEN [3]: 15.33 mg/dL | CHLORIDE [3]: 101.67 MEQ/L | CHOLESTEROL [3]: 67 mg/dL | CREATINE PHOSPHOKINASE [3]: 159.67 u/L | CREATININE [3]: 0.5 mg/dL | GLUCOSE [3]: 174.67 mg/dL | PHOSPHORUS [3]: 14.17 mg/dL | POTASSIUM [3]: 7.1 MEQ/L | SODIUM [3]: 149 MEQ/L | TOTAL PROTEIN [3]: 5.7 G/DL
